Two molecules from ChEMBL document CHEMBL1649192, “Dynamics of malaria drug resistance patterns in the Amazon basin region following changes in Peruvian national treatment policy for uncomplicated malaria” (Antimicrob Agents Chemother, 2009) can be followed below.

The subject of assay [1] is Plasmodium falciparum. In words: Antimicrobial activity against Plasmodium falciparum harboring NGFSDD genotype after 72 hrs by SYBR green I assay.
For assay [2], the system named is Plasmodium falciparum. In words: Antimicrobial activity against Plasmodium falciparum harboring SVMNT genotype after 72 hrs by SYBR green I assay.
The test system of assay [3] is Plasmodium falciparum. In words: Antimicrobial activity against Plasmodium falciparum harboring CVMNT genotype after 72 hrs by SYBR green I assay.

As for `OC(c1cc(C(F)(F)F)nc2c(C(F)(F)F)cccc12)C1CCCCN1` (stereo not drawn) [MEFLOQUINE], the half-inhibitory concentration (IC50) in the assay on Plasmodium falciparum [1] was found to be 21 nM. In the case of `C=C[C@H]1CN2CC[C@H]1C[C@H]2[C@H](O)c1ccnc2ccc(OC)cc12` [QUININE], the figures for the IC50 with Plasmodium falciparum [2] and in the assay on Plasmodium falciparum [3] were 70 nM and 66 nM, respectively.
